Laboratory results from the supplement of paper PMC11208160.

Test: recombinant barcode read abundance after kanamycin selection (control-corrected) (log10(CPM+1)); higher = more efficient recombination; sequences stand for … in AGTGCAGAGAAAATCGGCCAGTTTTCTCTGCCTGCAGTCCGCATGCCGT…AGATTTATGCAGCGGACTGCCTTTCTCCCAAAGTGATAAACCGGACAGTATCATGGACCGGTTTTCCCGGTAATCCGTATTTGCAAGGTTGGTTTCACT; site = the 11-nt target
Method: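 Pooled E. coli target-specificity screen for the IS621 bridge recombinase. Each library plasmid pairs an 11-nt target (CT core) with a bridge RNA whose target-binding loop (9-nt LTG + 4-nt RTG) is reprogrammed; the rest of the 177-nt WT IS621 bridge RNA scaffold is fixed. The plasmid is co-electroporated with a WT donor plasmid; recombinase is induced with 0.1 mM IPTG and recombinants are selected on kanamycin. Recombinant barcodes are sequenced, converted to CPM, averaged over two biological replicates and corrected by the unselected control CPM. Molecule = full bridge RNA written as DNA: LTG = specificity nt 1-9, RTG = reverse complement of specificity nt 8-11, in the WT scaffold.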
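Further: IS621 recombinase and bridge RNA in Escherichia coli cells.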

In order of falling “recombinant barcode read abundance (log10)” value:
1. ACCCAGCCTTGGGTTCTAACCTGTTGCGT (site ACCCAGCCTAC)  3.25
2. ACCCATTCTTGGGTTCTAACCTGTTGCGT (site ACCCATTCTAC)  2.29
3. ACCCAGCCTTGGGTTCTAACCTGTTGCGT (site ACCCAGCCTAT)  2.22
4. ACCCTAACTTGGGTTCTAACCTGTTGCCG (site ACCCTAACTCG)  2.03
5. ACCTTACCTTGGGTTCTAACCTGTTGCGT (site ACCTTACCTAC)  1.97
6. ACCATGTCTTGGGTTCTAACCTGTTGCGG (site ACCATGTCTCC)  1.96
7. ACCAGGACTTGGGTTCTAACCTGTTGCCG (site ACCAGGACTCG)  1.94
8. ACCCAAGCTTGGGTTCTAACCTGTTGCCT (site ACCCAAGCTAG)  1.57
9. ACCGACCCTTGGGTTCTAACCTGTTGCCG (site ACCGACCCTCG)  1.47
10. ACCCCTCCTTGGGTTCTAACCTGTTGCCA (site ACCCCTCCTTG)  1.4
11. ACCTGACCTTGGGTTCTAACCTGTTGCCT (site ACCTGACCTAG)  1.31
12. ACCCAAGCTTGGGTTCTAACCTGTTGCCT (site ACCCAAACTAG)  1.14
13. ACATGATCTTGGGTTCTAACCTGTTGCCT (site ACATGATCTAG)  1.04
14. ACCCAGTCTTGGGTTCTAACCTGTTGCCA (site ACCCAGTCTTG)  0.961
15. ACCAGAGCTTGGGTTCTAACCTGTTGCCT (site ACCAGAGCTAG)  0.823
16. ACCCTGGCTTGGGTTCTAACCTGTTGCCT (site ACCCTGGCTAG)  0.816
17. ACGACCGCTTGGGTTCTAACCTGTTGCCT (site ACGACCGCTAG)  0.804
18. ACCATCACTTGGGTTCTAACCTGTTGCCT (site ACCATCACTAG)  0.79
19. ACCGATTCTTGGGTTCTAACCTGTTGCAT (site ACCGATTCTAT)  0.696
20. ACGAAGGCTTGGGTTCTAACCTGTTGCCG (site ACGAAGGCTCG)  0.691
21. ACCAGTACTTGGGTTCTAACCTGTTGCCT (site ACCTGTACTAG)  0.664
22. ACCTTACCTTGGGTTCTAACCTGTTGCGG (site ACCTTACCTCC)  0.617
23. ACATTTCCTTGGGTTCTAACCTGTTGCCT (site ATATTTCCTAG)  0.58
24. ACGACCGCTTGGGTTCTAACCTGTTGCCT (site ACGAACGCTAG)  0.571
25. ACCCAGCCTTGGGTTCTAACCTGTTGCGT (site ACCCAGCCTAA)  0.534
26. ACCAGAGCTTGGGTTCTAACCTGTTGCCT (site ACTAGAGCTAG)  0.528
27. ACCTTACCTTGGGTTCTAACCTGTTGCGT (site ACCTTACCTCC)  0.504
28. ACCTGGCCTTGGGTTCTAACCTGTTGCCT (site ACCTGGCCTAG)  0.412
29. ACCTTACCTTGGGTTCTAACCTGTTGCGG (site ACCTTACCTAC)  0.37
30. ACCGATTCTTGGGTTCTAACCTGTTGCAT (site GCCGATTCTAG)  0.331
31. ACCCTGGCTTGGGTTCTAACCTGTTGCCT (site ACGCTGGCTAG)  0.326
32. ACCCAGCCTTGGGTTCTAACCTGTTGCGT (site ACCCAGCCTAG)  0.316
33. ACCTGGCCTTGGGTTCTAACCTGTTGCCT (site ACCTGTCCTAG)  0.247
34. ACGACCGCTTGGGTTCTAACCTGTTGCCT (site ACGATCGCTAG)  0.245
35. ACCCCTCCTTGGGTTCTAACCTGTTGCCA (site ACGCCTCCTTG)  0.228
36. ACCTCAACTTGGGTTCTAACCTGTTGCCT (site ACTTCAACTAG)  0.215
37. ACCCTGGCTTGGGTTCTAACCTGTTGCCT (site ACTCTGGCTAG)  0.205
38. ACCTCTTCTTGGGTTCTAACCTGTTGCTA (site CGTCGACCTAT)  0.204
39. ACCCAAGCTTGGGTTCTAACCTGTTGCCT (site ACCCAACCTAG)  0.199
40. ACCCAAGCTTGGGTTCTAACCTGTTGCCT (site ACCCAATCTAG)  0.196
41. ACCTCAACTTGGGTTCTAACCTGTTGCCT (site ACCTCAACTAG)  0.19
42. ACCTCAACTTGGGTTCTAACCTGTTGCCT (site ACGTCAACTAG)  0.188
43. ACGAAGGCTTGGGTTCTAACCTGTTGCCG (site ACGAAGGCTAG)  0.182
44. ACCATGTCTTGGGTTCTAACCTGTTGCGG (site TAGTACACTGT)  0.171
45. ACGACTGCTTGGGTTCTAACCTGTTGCCT (site ACGACTACTAG)  0.166
46. ACCTGGCCTTGGGTTCTAACCTGTTGCCT (site ACCTGACCTAG)  0.165
47. ACGACTGCTTGGGTTCTAACCTGTTGCCT (site ACGACTCCTAG)  0.163
48. ACCTGGCCTTGGGTTCTAACCTGTTGCCT (site ACCTGCCCTAG)  0.147
49. ACCTCTTCTTGGGTTCTAACCTGTTGCTA (site ACCTCTTCTTA)  0.141
50. ACATTTCCTTGGGTTCTAACCTGTTGCCT (site AGATTTCCTAG)  0.138
51. ACCAGAGCTTGGGTTCTAACCTGTTGCCT (site ACAAGAGCTAG)  0.131
52. ACCCTAACTTGGGTTCTAACCTGTTGCCG (site ACCCTATCTAG)  0.129
53. ACGACTACTTGGGTTCTAACCTGTTGCCT (site ACGACTACTAG)  0.128
54. ACCCAGTCTTGGGTTCTAACCTGTTGCCA (site AACCAGTCTCG)  0.12
55. ACCTGGGCTTGGGTTCTAACCTGTTGCCT (site ATCTGGGCTAG)  0.12
56. ACGACCGCTTGGGTTCTAACCTGTTGCCT (site ACGAGCGCTAG)  0.119
57. ACGACTACTTGGGTTCTAACCTGTTGCCT (site ACGACTGCTAG)  0.113
58. ACCGTCCCTTGGGTTCTAACCTGTTGCCG (site ACCGTCCCTCG)  0.107
59. ACCGACCCTTGGGTTCTAACCTGTTGCCG (site ACCGTCCCTCG)  0.105
60. ACCATCACTTGGGTTCTAACCTGTTGCCT (site ACAAGCACTAG)  0.103
61. ACATTTCCTTGGGTTCTAACCTGTTGCCT (site ACATTTCCTAG)  0.1
62. ACCTGACCTTGGGTTCTAACCTGTTGCCT (site ACCTGGCCTAG)  0.1
63. ACCAGGACTTGGGTTCTAACCTGTTGCCG (site GAGCCTCCTAT)  0.091
64. ACATTTCCTTGGGTTCTAACCTGTTGCCT (site AAATTTCCTAG)  0.0832
65. ACATCTCCTTGGGTTCTAACCTGTTGCCT (site GCATCTCCTAG)  0.0778
66. ACCCTGGCTTGGGTTCTAACCTGTTGCCT (site ACACTGGCTAG)  0.0738
67. ACCTGACCTTGGGTTCTAACCTGTTGCCT (site ACCTGTCCTAG)  0.0737
68. ACCAGTACTTGGGTTCTAACCTGTTGCCT (site ACCCGTACTAG)  0.0724
69. ACCTCAACTTGGGTTCTAACCTGTTGCCT (site ACATCAACTAG)  0.0721
70. ACCTGGGCTTGGGTTCTAACCTGTTGCCT (site ACCTGGGCTAG)  0.0605
71. ACCAGTACTTGGGTTCTAACCTGTTGCCT (site ACCAGTACTAG)  0.0544
72. ACCAGAGCTTGGGTTCTAACCTGTTGCCT (site ACGAGAGCTAG)  0.0525
73. ACGACTACTTGGGTTCTAACCTGTTGCCT (site ACGACTTCTAG)  0.048
74. ACATCTCCTTGGGTTCTAACCTGTTGCCT (site TCATCTCCTAG)  0.0426
75. ACCTGGGCTTGGGTTCTAACCTGTTGCCT (site AACTGGGCTAG)  0.0365
76. ACCGTCCCTTGGGTTCTAACCTGTTGCCG (site ACCGACCCTCG)  0.0364
77. ACCCATTCTTGGGTTCTAACCTGTTGCGT (site TAGATAACTCA)  0.0317
78. ACCTGACCTTGGGTTCTAACCTGTTGCCT (site ACCTGCCCTAG)  0.0303
79. ACCAGTACTTGGGTTCTAACCTGTTGCCT (site ACCGGTACTAG)  0.0115
80. ACATGATCTTGGGTTCTAACCTGTTGCCT (site ACAATATCTAG)  0.0106
81. ACGACTACTTGGGTTCTAACCTGTTGCCT (site ACGACTCCTAG)  0.00963
82. ACCTGGGCTTGGGTTCTAACCTGTTGCCT (site AGCTGGGCTAG)  0
